system: TNF-α production in LPS-stimulated human whole blood; test: Inhibition of TNF-α production from human whole blood (hWBA); assay type: cell-based; settings: Homo sapiens, IC50 for TNF-α production, LPS-stimulated human whole blood; read-out: hWBA

Compound	IC50 [µM]
CCN1CCN(C(=NO)c2ccc(C#C[C@]3(CN4Cc5ccc(OC)cc5C4=O)NC(=O)NC3=O)cc2)CC1 [Compound 911]	0.02
COc1ccc2c(c1)C(=O)N(CC1(C#Cc3cccnc3N3CCN(C)CC3)NC(=O)NC1=O)C2 (stereo not shown) [Compound 2285]	1.23
COc1ccc2c(c1)C(=O)N(C[C@]1(C#Cc3ccc(C(=O)NS(C)(=O)=O)nc3)NC(=O)NC1=O)C2 [Compound 901]	1

Continued, values first:

IC50 [µM]	Compound
0.236	COc1ccc2c(c1)C(=O)N(C[C@@]1(C#Cc3ccc(-c4cn[nH]c4N)cc3)NC(=O)NC1=O)C2 [Compound 2296]
1	COc1ccc2c(c1)C(=O)N(C[C@@]1(C#Cc3ccc(CC4(C)NC(=O)NC4=O)cc3)NC(=O)NC1=O)C2 (stereo partly shown) [Compound 2281]
0.432	COc1ccc2c(c1)C(=O)N(C[C@@]1(C#Cc3cncc(C(=O)NN)c3)NC(=O)NC1=O)C2 [Compound 2255]
0.517	COc1ccc2c(c1)C(=O)N(C[C@@]1(C#Cc3ccc(C(C)(C)C(N)=O)cc3)NC(=O)NC1=O)C2 [Compound 2262]

same assay, conditions: Homo sapiens, IC50 for inhibition of TNF-α production, LPS-stimulated human whole blood; read-out: hWBA

Compound	IC50 [µM]
COc1ccc2c(c1F)C(=O)N(C[C@@]1(C#Cc3ccc(C(CN)N4CCC(NC(=O)OC(C)(C)C)C4)cc3)NC(=O)NC1=O)C2 (stereo partly shown) [Compound 1702]	0.303
COc1ccc2c(c1)C(=O)N(C[C@@]1(C#Cc3cnc(N)nc3N)NC(=O)NC1=O)C2 [Compound 2209]	1.6
COc1ccc2c(c1F)C(=O)N(C[C@@]1(C#Cc3ccc(-c4nc(-c5cccnc5)ccc4O)cc3)NC(=O)NC1=O)C2 [Compound 1001]	0.106
CSc1ccc2c(c1)C(=O)N(C[C@@]1(C#Cc3cccnc3)NC(=O)NC1=O)C2 [Compound 312]	0.651
COc1ccc2c(c1)C(=O)N(C[C@@]1(C#Cc3ccc(C(=O)N4CCC(N5CCCCC5)CC4)cc3)NC(=O)NC1=O)C2 [Compound 963]	0.401
COc1ccc2c(c1)C(=O)N(CC1(C#Cc3cccc4c3CCC43NC(=O)NC3=O)NC(=O)NC1=O)C2 (stereo not shown) [Compound 1318]	> 1
COc1ccc2c(c1F)C(=O)N(C[C@@]1(C#Cc3ccc(CN4CCN(c5ccncc5)CC4)cc3)NC(=O)NC1=O)C2 [Compound 981]	0.29
COc1ccc2c(c1)C(=O)N(C[C@@]1(C#Cc3cncc(-c4ccc(C(N)=O)o4)c3)NC(=O)NC1=O)C2 [Compound 2213]	0.776
CCN1CCN(C(=NO)c2cnc(C#C[C@]3(CN4Cc5ccc(OC)cc5C4=O)NC(=O)NC3=O)c(OC)c2)CC1 [Compound 1923]	0.204
COc1ccc2c(c1)C(=O)N(C[C@@]1(C#Cc3cc(C(N)=O)ccc3C)NC(=O)NC1=O)C2 [Compound 2220]	0.417
COc1ccc2c(c1)C(=O)N(C[C@@]1(C#Cc3ccc(CCNC(=O)C(F)(F)F)s3)NC(=O)NC1=O)C2 [Compound 2221]	0.93
COc1ccc2c(c1)C(=O)N(C[C@@]1(C#Cc3nc(-c4cccc(C#N)c4)ccc3OC)NC(=O)NC1=O)C2 [Compound 1501]	1000
COc1ccc2c(c1)C(=O)N(C[C@@]1(C#Cc3cccc(N4CCSCC4)n3)NC(=O)NC1=O)C2 [Compound 997]	4.32

Other lines, results leading:

IC50 [µM]	Compound
5.38	COc1ccc2c(c1)C(=O)N(C[C@@]1(C#Cc3ccc(-c4cnccc4OC)nc3)NC(=O)NC1=O)C2 [Compound 1105]
0.652	COc1ccc2c(c1)C(=O)N(C[C@@]1(C#Cc3ccc(-c4ccccc4O)cc3)NC(=O)NC1=O)C2 [Compound 969]
3.13	COc1ccc2c(c1)C(=O)N(C[C@@]1(C#Cc3ccc(CN4CCN(c5nccs5)CC4)cc3)NC(=O)NC1=O)C2 [Compound 980]
0.786	COc1ccc2c(c1)C(=O)N(C[C@@]1(C#Cc3ccc(-n4ccnc4)cc3)NC(=O)NC1=O)C2 [Compound 1160]
0.446	CCN1CCN(C(=O)c2ccc(C#C[C@]3(CN4Cc5ccc(OC)cc5C4=O)NC(=O)NC3=O)cc2)CC1 [Compound 960]
0.258	COc1ccc2c(c1)C(=O)N(C[C@@]1(C#Cc3ccc(-n4c(-c5cccnc5)n[nH]c4=O)cc3)NC(=O)NC1=O)C2 [Compound 1916]
1.2	COc1ccc2c(c1)C(=O)N(C[C@@]1(C#Cc3ccc(C(c4ccc[nH]4)c4ccc[nH]4)cc3)NC(=O)NC1=O)C2 [Compound 2201]

same assay, conditions: IC50 for TNF-α production, LPS-stimulated human whole blood; read-out: hWBA

Compound	IC50 [µM]
COc1ccc2c(c1)CCN(C[C@@]1(C#Cc3ccc4c(c3)CCCC43NC(=O)NC3=O)NC(=O)NC1=O)C2=O (stereo partly shown) [Compound 2321]	1.1
COc1ccc2c(c1)C(=O)N(C[C@@]1(C#Cc3ccc(C(=NO)N4CCCN(C(C)C)CC4)cc3)NC(=O)NC1=O)C2 [Compound 931]	0.047
COc1ccc2c(c1)C(=O)N(C[C@@]1(C#Cc3ccc(C(=NO)N4CCN(C)CC4)nc3)NC(=O)NC1=O)C2 [Compound 953]	0.087
COc1ccc2c(c1)CCN(C[C@@]1(C#Cc3ccc(C(=NO)N4CCCN(C)CC4)cc3)NC(=O)NC1=O)C2=O [Compound 2317]	0.639
CCN1CCN(C(=NO)c2ccc(C#C[C@]3(CN4CCc5cc(OC)ccc5C4=O)NC(=O)NC3=O)cc2)CC1 [Compound 2316]	0.335
C#C[C@]1(CN2Cc3ccc(OC)c(F)c3C2=O)NC(=O)NC1=O [Compound 23]	0.841
COc1ccc2c(c1)C(=O)N(C[C@@]1(C#Cc3cnc(N)c(C(=O)NS(C)(=O)=O)c3)NC(=O)NC1=O)C2 [Compound 904]	10

Next, values leading:

IC50 [µM]	Compound
0.652	COc1ccc2c(c1)C(=O)N(C[C@@]1(C#Cc3ccc(-c4ccccc4O)cc3)NC(=O)NC1=O)C2 [Compound 955]
0.117	COc1ccc2c(c1)C(=O)N(C[C@@]1(C#Cc3ccc(-c4ncccc4O)cc3)NC(=O)NC1=O)C2 [Compound 934]
0.186	COc1ccc2c(c1)C(=O)N(C[C@@]1(C#Cc3ccc(C(=NO)N4CCC4)cc3)NC(=O)NC1=O)C2 [Compound 914]

same assay, conditions: IC50 for inhibition of TNF-α production, LPS-stimulated human whole blood

Compound	hWBA (nM)
COc1ccc2c(c1)C(=O)N(C[C@@]1(C#Cc3ccc(-c4cccc(Cl)c4O)nc3)NC(=O)NC1=O)C2 [Compound 1315]	Inactive

same assay, conditions: IC50 for inhibition of TNF-α production, LPS-stimulated human whole blood; read-out: hWBA

Compound	IC50 [µM]
COc1ccc2c(c1)C(=O)N(C[C@@]1(C#Cc3nc(-c4ccc(N5CCNCC5)nc4)ccc3OC)NC(=O)NC1=O)C2 [Compound 1511]	2.05
COc1ccc2c(c1F)C(=O)N(C[C@@]1(C#Cc3ccc(-c4nc(-c5cnn(C)c5)ccc4OC(=O)C(C)(C)C)c(F)c3)NC(=O)NC1=O)C2 [Compound 1006]	0.0685
CCN1CCN(c2n[nH]c3ccc(C#C[C@]4(CN5Cc6ccc(OC)cc6C5=O)NC(=O)NC4=O)cc23)CC1 [Compound 2238]	0.422
COc1ccc2c(c1)C(=O)N(C[C@@]1(C#Cc3ccc(C4(CNS(C)(=O)=O)NC(=O)NC4=O)cc3)NC(=O)NC1=O)C2 (stereo partly shown) [Compound 1110]	0.176
COc1ccc2c(c1)C(=O)N(C[C@@]1(C#Cc3nc(-c4n[nH]c(=O)n4C4CCN(C)CC4)ccc3OC)NC(=O)NC1=O)C2 [Compound 1900]	2.19
COc1ccc2c(c1F)C(=O)N(C[C@@]1(C#Cc3ccc(CN4CCCCC4)nc3)NC(=O)NC1=O)C2 [Compound 967]	0.785
COc1ccc2c(c1)C(=O)N(C[C@@]1(C#Cc3c(C)ncc(C(=O)O)c3O)NC(=O)NC1=O)C2 [Compound 2232]	0.699
COc1ccc2c(c1F)C(=O)N(C[C@@]1(C#Cc3ccc(-c4cccc(N5CCN(C6CCCCC6)CC5)n4)cc3)NC(=O)NC1=O)C2 [Compound 993]	0.856
COc1ccc2c(c1)C(=O)N(C[C@@]1(C#Cc3ccc(N(c4cccnc4)C4CCNCC4)nc3)NC(=O)NC1=O)C2 [Compound 2200]	0.43
CCN1CCN(C(=O)C2CCC(=O)N2c2ccc(C#C[C@]3(CN4Cc5ccc(OC)cc5C4=O)NC(=O)NC3=O)cc2)CC1 (stereo partly shown) [Compound 1901]	0.113
COc1ccc2c(c1)C(=O)N(C[C@@]1(C#Cc3ccc4c(CN(C)C)n[nH]c4c3)NC(=O)NC1=O)C2 [Compound 728]	0.163
COc1ccc2c(c1F)C(=O)N(C[C@@]1(C#Cc3ccc(-c4cccc(N5CCOCC5)n4)cc3)NC(=O)NC1=O)C2 [Compound 995]	1.64
COc1ccc2c(c1)C(=O)N(C[C@@]1(C#Cc3ncc(C(=NO)N4CCN(c5cnccn5)CC4)cc3OC)NC(=O)NC1=O)C2 [Compound 1924]	0.515
CCN1CCN(C(C)c2ccc(C#C[C@]3(CN4Cc5ccc(OC)c(F)c5C4=O)NC(=O)NC3=O)cc2)CC1 (stereo partly shown) [Compound 984]	0.695
COc1ccc2c(c1)C(=O)N(C[C@@]1(C#Cc3ccc4c(c3)c(N)nn4CCN(C)C)NC(=O)NC1=O)C2 [Compound 705]	0.101
COc1ccc2c(c1)C(=O)N(C[C@@]1(C#Cc3cncc(NC(=O)C4CCN(C)CC4)c3)NC(=O)NC1=O)C2 [Compound 1908]	0.299
CCN1CCN(C(=O)C2CCC(=O)N2c2ccc(C#C[C@]3(CN4Cc5ccc(OC)c(F)c5C4=O)NC(=O)NC3=O)cc2)CC1 (stereo partly shown) [Compound 1903]	0.152
COc1ccc2c(c1)C(=O)N(C[C@@]1(C#Cc3ccc(C(=O)N4CCN(C5CC5)CC4)cc3)NC(=O)NC1=O)C2 [Compound 961]	1.16

The next lines start with the values.

IC50 [µM]	Compound
0.26	COc1ccc2c(c1)C(=O)N(C[C@@]1(C#Cc3cncc(-c4cn[nH]c4)c3)NC(=O)NC1=O)C2 [Compound 2207]
0.444	COc1ccc2c(c1)C(=O)N(C[C@@]1(C#Cc3cncc(NC(C)=O)c3)NC(=O)NC1=O)C2 [Compound 2242]
0.488	COc1ccc2c(c1)C(=O)N(C[C@@]1(C#Cc3ccc(-c4c(C)n[nH]c4N)cc3)NC(=O)NC1=O)C2 [Compound 1303]
0.306	COc1ccc2c(c1)C(=O)N(C[C@@]1(C#Cc3ccc(Nc4c(N)c(=O)c4=O)cc3)NC(=O)NC1=O)C2 [Compound 1308]
0.361	COc1ccc2c(c1)C(=O)N(C[C@@]1(C#Cc3cncc(-c4ccc(C(N)=O)cc4)c3)NC(=O)NC1=O)C2 [Compound 2208]
0.219	COc1ccc2c(c1)C(=O)N(C[C@@]1(C#Cc3ccc(CCN)cc3)NC(=O)NC1=O)C2 [Compound 2202]
0.065	COc1ccc2c(c1)C(=O)N(C[C@@]1(C#Cc3ccc(-c4nc(-c5ccncc5)ccc4O)cc3)NC(=O)NC1=O)C2 [Compound 970]
0.233	COc1ccc2c(c1)C(=O)N(C[C@@]1(C#Cc3ccc(C(CN)N4CCC(N)C4)cc3)NC(=O)NC1=O)C2 (stereo partly shown) [Compound 1705]

Source: patent US8541572B2
